Experimental data as given in patent publication US9862746B2, “Compositions and methods relating to hindering DOT1L recruitment by MLL-fusion proteins” (The Regents of the University of Michigan, priority 2013, dated 2018).
Blank lines part the entries; values can stand above or below the compound they belong to. Where a SMILES comes first, the peptide text is derived from it.

Assays:
AF9 [1] = target: T1, AF9 (Homo sapiens, UniProt P42568); test: Solution competitive SPR assay of peptides, AF9-DOT1L interaction; format: binding; set-up: against AF9(497-568) and ENL (489-559) proteins running different tested concentrations over CM5 chip; GB1 (pGB1-LIC vector); made in house; host or cells: Escherichia coli BL21 (DE3); details: read-out: IC50 against AF9 (block PPI DOT1L/AF9)
T1 sequence (P42568 497-568): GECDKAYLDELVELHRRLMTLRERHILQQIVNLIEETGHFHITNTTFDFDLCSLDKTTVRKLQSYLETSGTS
Description: (§1) Solution competitive SPR based assay was performed to determine the IC50 values of DOT1L peptides. […] Response units (RU) were measured at 15 seconds in the dissociation phase and the specific binding was calculated by subtracting the control surface (Fcl) signal from the surfaces with immobilized Mocr-DOT1L. IC50 values were determined by non-linear least squares analysis using Graph Pad Prism 5.0 software.

GB1-AF9 = target: T2, GB1-AF9 (Homo sapiens, UniProt P42568); test: FP competitive binding, displacement of Flu-DOT1L from GB1-AF9; details: read-out: IC50, competition with DOT1L 10-mer fluorescein-labeled peptide for AF9
T2 construct: the recombinant GB1-AF9 protein (residues 497-568); made in house; host or cells: Escherichia coli BL21 (DE3)
T2 sequence (P42568 497-568): T1 sequence (P42568 497-568)
Description: AF4 (749-775) protein and several peptides (AF4 14 mer, un-labeled and biotin-labeled DOT1L 10 mer peptide) were tested for their ability to displace the Flu-DOT1L from GB1-AF9 protein. The dose-dependent binding experiments were carried out in 96-well plates with serial dilutions of tested protein or peptides, GB1-AF9 protein (500 nM) and Flu-DOT1L (10 nM) in the same assay buffer and final volume of 125 μL. The polarization values were measured after 3 h incubation. Negative controls containing GB1-AF9 protein and probe (equivalent to 0% inhibition), and positive controls containing only free Flu-DOT1L probe (equivalent to 100% inhibition), were included on each assay plate. IC50 values were determined by nonlinear regression fitting of the competition curves (GraphPad Prism 5.0).

ENL [2] = target: T3, ENL (Homo sapiens, UniProt Q03111); test: Solution competitive SPR assay of peptides, ENL-DOT1L interaction; format: binding; details: read-out: IC50 against ENL (block PPI DOT1L/ENL)
T3 construct: against AF9(497-568) and ENL (489-559) proteins running different tested concentrations over CM5 chip; MBP (pMSCG9-LIC vector); made in house; host or cells: Escherichia coli BL21 (DE3)
T3 sequence (Q03111 489-559): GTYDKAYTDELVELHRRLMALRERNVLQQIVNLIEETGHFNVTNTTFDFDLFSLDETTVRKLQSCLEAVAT
Description: as §1

AF9 [3] = target: T4, AF9 (Homo sapiens, UniProt P42568); test: Saturation Transfer Difference (STD) NMR; format: binding
T4 sequence (P42568 1-568): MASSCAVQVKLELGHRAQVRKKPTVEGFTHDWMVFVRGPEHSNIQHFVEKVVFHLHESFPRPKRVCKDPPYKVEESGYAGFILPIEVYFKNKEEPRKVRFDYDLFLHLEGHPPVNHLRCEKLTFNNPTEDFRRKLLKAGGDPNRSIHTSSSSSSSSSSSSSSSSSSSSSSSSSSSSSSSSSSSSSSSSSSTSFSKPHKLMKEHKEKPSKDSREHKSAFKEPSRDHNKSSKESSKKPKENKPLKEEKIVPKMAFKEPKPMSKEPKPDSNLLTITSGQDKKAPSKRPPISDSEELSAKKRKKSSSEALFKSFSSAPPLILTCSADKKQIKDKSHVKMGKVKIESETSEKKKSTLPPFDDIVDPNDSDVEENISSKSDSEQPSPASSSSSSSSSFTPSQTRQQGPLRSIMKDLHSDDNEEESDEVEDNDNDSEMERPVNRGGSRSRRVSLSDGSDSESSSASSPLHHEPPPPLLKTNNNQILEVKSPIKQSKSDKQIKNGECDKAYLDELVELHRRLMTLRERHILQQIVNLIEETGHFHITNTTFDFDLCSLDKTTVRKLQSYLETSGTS
Description: C) Globally fitted concentration series of 38 (100, 50, 25, 12.5 and 6.25 μM) binding to immobilized AF9 using OctetRed System (see Example 12).
To provide further validation of the hit selection in addition to the biochemical assays Saturation Transfer Difference (STD), NMR spectroscopy was used. NMR spectroscopy has been successfully utilized to detect and characterize the direct binding of small-molecule compounds to large biomolecules. This technique is also allowing characterization of the binding interactions and maps the ligand-protein contacts in the bound state, delineating which chemical moieties of the ligand molecule are key for molecular recognition by the protein (group epitope mapping, FIG. 20A). […] The direct binding of 38 was also confirmed with ThermoFluor biophysical binding assay. ThermoFluor exploits a well-known biophysical phenomenon where small changes in the intrinsic melting temperature of proteins in the presence of ligands are related to the equilibrium-binding constant. Compounds that interact with the native form of the protein will shift the equilibrium to the left, increasing the Tm, the temperature at which half the protein is unfolded. In the presence of compound 38, the Tm of MBP-AF9 protein increases in a dose-dependent manner, giving ΔTm of 1.2 degree in […] (FIG. 20B).

ENL [4] = target: T3, ENL; test: SPR competitive binding assay of small molecules, ENL; details: SPR competitive based assay; read-out: ENL IC50 ± SD
From the text: (§2) To further validate the binding of the confirmed compounds and identify potential promiscuous inhibitors, several secondary assays have been developed to support hit confirmation and the hit-to-probe optimization process. In order to determine that the compounds bind effectively to the target and disrupt protein-protein interaction, a SPR competitive binding assay was used. This assay uses a platform that differs from the FP-based assay where DOT1L recombinant protein (residues […]) is immobilized on a CM5 chip, allowing for testing of the inhibitors for their ability to disrupt AF9-DOT1L protein-protein interactions.
This class of compounds was also tested for their binding against ENL protein, which is highly homologous with AF9.

AF9 [5] = target: T1, AF9; test: SPR competitive binding assay of small molecules, AF9-DOT1L; set-up: against AF9(497-568) and ENL (489-559) proteins running different tested concentrations over CM5 chip; GB1 (pGB1-LIC vector); made in house; host or cells: Escherichia coli BL21 (DE3); details: SPR competitive based assay; read-out: AF9 IC50 ± SD
From the text: Several secondary assays have already been developed to support hit confirmation and the hit-to-probe optimization process. The established and optimized SPR-based competitive assay utilizing DOT1L protein (826-1095) immobilized on the CM5 sensor chip was used as a secondary counter screen assay to validate binding of compounds to AF9. […] Both assays gave similar IC50 values.
as §2

[6] = Microsomal stability in mouse liver microsome; format: in vitro ADME; details: with NADPH
Description: For optimization of this class of inhibitors besides testing their binding affinity, the physico-chemical properties and microsomal stability will be tested in order to obtain improvement at multiple levels, as necessary for fully optimized compounds. To obtain initial information about the stability of this chemical class of compounds, compounds 42 and 48 have been tested in microsomal stability using mouse liver microsome. […] If their structure is analyzed, the major difference between these two compounds is the R2 substituent, furan vs. thiophen.

MBP-ENL (489-559) = target: T5, MBP-ENL (489-559) (Homo sapiens, UniProt Q03111); test: Isothermal titration calorimetry with MBP-ENL; format: binding; details: ITC, MBP-tagged ENL, 1:1 stoichiometry; read-out: KD to ENL protein
T5 construct: MBP-ENL (489-559) was dialysed extensively; made in house; host or cells: Escherichia coli BL21 (DE3)
T5 sequence (Q03111 489-559): T3 sequence (Q03111 489-559)
Description: Isothermal titration calorimetry—ITC was carried out using a Nano-ITC Micro Calorimeter (TA Instruments) at 20° C. MBP-ENL (489-559) was dialysed extensively against 50 mM Na2HPO4, (pH 7.5) and 100 mM NaCl, and 80 μM was used for titration studies of DOT1L 16-mer and 10-mer peptides, and 110 μM for DOT1L 7-mer titration. Tested peptides dissolved in the same buffer at 400 μM (DOT1L 16-mer and 10-mer) or 500 μM (DOT1L 7-mer) were tested by injecting 2 μl aliquots into the protein sample, at time intervals of […], to ensure that the titration peak returned to the baseline. The ITC data were analyzed by NanoAnalyze software package using a one site-binding model.

H3K79 methylation = test: Global H3K79 methylation in MLL-AF9 transformed cells; format: cell-based, mouse; details: 6 days treatment of MLL-AF9 transformed cells
From the text: FIG. 23 presents cell growth curves of A) MLL-AF9 and B) Hoxa9/Meis1 transformed mouse cells and C) adult LSKs after treatment with 38. D) H3K79 methylation after 6 days treatment with 38 and EPZ004777 DOT1L inhibitor (see, e.g., Daigle, et al., Cancer Cell 20, 53-65 (2011)).
This example involves the assessment of cellular effects of compound 38. […] Compound 38 inhibited growth of MLL-AF9 cells in a dose-dependent manner (FIG. 23A), with cell growth inhibition starting after 4 days of treatment. […] The hypothesis predicts that compounds that can block the DOT1L recruitment, but not its catalytic activity, will not affect normal hematopoiesis, as well as the global level of H3K79 methylation. To test this hypothesis, the toxicity of compound 38 was tested on purified LSK (lin-sca-1+ckit+) progenitors from adult wild type mice (FIG. 23C).

DOT1L (826-1095) = target: T6, DOT1L (826-1095) (Homo sapiens, UniProt Q8TEK3); test: SPR binding of ENL fragments to immobilized Mocr-DOT1L (826-1095)
T6 construct: made in house; host or cells: Escherichia coli BL21 (DE3)
T6 sequence (Q8TEK3 826-1095): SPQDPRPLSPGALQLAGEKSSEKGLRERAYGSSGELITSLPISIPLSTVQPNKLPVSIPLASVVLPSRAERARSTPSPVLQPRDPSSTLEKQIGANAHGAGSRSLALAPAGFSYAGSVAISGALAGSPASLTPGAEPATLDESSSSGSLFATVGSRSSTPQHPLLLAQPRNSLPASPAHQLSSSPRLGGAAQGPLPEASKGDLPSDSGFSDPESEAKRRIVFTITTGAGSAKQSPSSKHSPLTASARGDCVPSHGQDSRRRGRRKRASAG
Description: FIG. 7 pertains to analyzing the C-terminal domain in ENL protein and its binding to DOT1L. A. Alignment of ENL and AF9 C-terminal domain. The predicted α-helices are marked with Helix 1 and Helix 2 and conserved residues are presented in grey. […] The kon, koff and Kd were calculated by simultaneous non-linear regression using 1:1 binding model and BIAevaluation 3.1 software. The experimental data are shown in black while the global fit analyses are shown in grey.
Surface Plasmon Resonance (SPR) binding studies—All SPR based experiments were performed on a BIAcore 2000 (BIAcore, GE Healthcare) instrument. Different tested DOT1L recombinant proteins were immobilized on a CM5 sensor chip by standard EDC/NHS coupling chemistry followed by ethanolamine deactivation of the surfaces. For immobilization of full length Flag-DOT1L protein, anti-Flag antibody (Sigma, Anti-FLAG M2) was immobilized on CM5 chip by the same amine coupling chemistry. HEK293 whole cells lysate with overexpressed Flag-DOT1L at 2.4 μg/l total protein concentration was injected over the Flag antibody surface, followed by injecting of AF9 and ENL in different concentrations. […] Binding parameters, kon, koff and Kd were calculated by simultaneous non-linear regression using BIAEvaluation software.

IC50 (AF9 [1]): 0.2 µM
IC50 (GB1-AF9): 0.28 µM
IC50 (ENL [2]): 0.43 µM
Compound: CC[C@H](C)[C@H](NC(=O)[C@H](CCCCN)NC(=O)[C@@H](NC(=O)[C@H](CCSC)NC(=O)[C@H](CC(C)C)NC(C)=O)C(C)C)C(=O)N[C@H](C(=O)N[C@@H](CC(C)C)C(=O)N[C@@H](CC(=O)O)C(=O)N[C@@H](CC(C)C)C(=O)N[C@@H](CC(C)C)C(=O)N[C@@H](CO)C(=O)N[C@@H](CCCNC(=N)N)C(=O)N[C@H](C(=O)N1CCC[C@H]1C(N)=O)[C@@H](C)CC)[C@@H](C)O [AF4 14 mer, reference compound] (Ac-LMVKITLDLLSRIP-NH2)

STD effects (direct binding to AF9) (AF9 [3]): strong STD effects
Compound: COc1cccc(Nc2nc(N3CCOCC3)c3c(n2)N(C)NC3)c1 [Compound 36]

Compound: CCCc1ccc(S(=O)(=O)N2c3ccccc3NC3=C(C(=O)CCC3)C2c2ccco2)cc1 (stereo not drawn) [Compound 42]
IC50 (ENL [4]): 58.1 ± 12 µM
IC50 (AF9 [5]): 47.1 ± 2.3 µM
half time in mouse liver microsome [6]: 2 min

IC50 (ENL [4]): 19.7 ± 4 µM
IC50 (AF9 [5]): 24.8 ± 1.3 µM
half time in mouse liver microsome [6]: > 60 min
Compound: CCc1ccc(S(=O)(=O)N2c3ccccc3NC3=C(C(=O)CCC3)C2c2cccs2)cc1 (stereo not drawn) [Compound 48]

Kd (MBP-ENL (489-559)): 3.4 µM
Compound: CC[C@H](C)[C@H](NC(=O)[C@@H]1CCCN1C(=O)[C@H](CC(C)C)NC(C)=O)C(=O)N[C@@H](CO)C(=O)N[C@H](C(=O)N1CCC[C@H]1C(=O)N[C@@H](CC(C)C)C(N)=O)[C@@H](C)CC [DOT1L 7 mer, Ac-LPISIPL-NH2] (Ac-LPISIPL-NH2)

Compound: CC(C)N(CCCNC(=O)Nc1ccc(C(C)(C)C)cc1)C[C@H]1O[C@@H](n2ccc3c(N)ncnc32)[C@H](O)[C@@H]1O [EPZ004777, reference compound]
global H3K79 methylation level (H3K79 methylation): decreased global level of H3K79 methylation

Kd (DOT1L (826-1095)): 2.8 µM
Compound: ENL H1: recombinant fragment of ENL protein corresponding to predicted helix 1 (GTYDKAYTDELVELHRRLMALRERNVLQQIVNLIEETGHFNVTNTTFDFDLFSLDE)

Kd (DOT1L (826-1095)): 14.6 µM
Compound: ENL H2: recombinant fragment of ENL protein corresponding to predicted helix 2 (EETGHFNVTNTTFDFDLFSLDETTVRKLQSCLEAVAT)

IC50 (GB1-AF9): 0.56 µM
Compound: recombinant AF4 protein: AF4 recombinant protein (749-775 residues) (LSPLRDTPPPQSLMVKITLDLLSRIPQ)
